Test results taken from patent publication US5998180A, “Nitrilase from Rhodoccus rhodochrous for converting acrylonitrile directly to acrylic acid” (priority 1995, dated 1999).
Read-outs that look alike come from different tables or passages of the source.

What was measured:
[1] = tested on: Rhodococcus rhodochrous NCIMB 40757 nitrilase; assay: Nitrilase kinetics of whole cells (acrylonitrile to ammonium acrylate); type: biochemical; conditions: for Km: 30° C.
Method: A novel nitrilase is characterised by having Km for acrylonitrile below 500 μM. Throughout this specification Km refers to Km measured at pH 7.0. […] In particular we use the conditions of Example 6 below. […] Microbial., 135 3153-3164 and those described for lactate dehydrogenase by Wagner (1990) Tibtech., 8, 263-270 will yield nitrilase having Km values up to 60 or 100, or perhaps 300 μM, and Km values down to. 9.4 and even 3.8 μM.
A novel nitrilase of the invention is characterised by having Ki for ammonium acrylate of at least 100 mM, preferably at least 150 or 200, more preferably at least 250 mM. Throughout this specification Ki refers to Ki measured at pH 7.0. […] Preferably measurement is under the conditions given in Example 7 below. […] It is envisaged that standard techniques and selection procedures, eg mutagenesis, will yield nitrilase having Ki for ammonium acrylate up to 300 mM or even 800 mM or greater.
(§1) The cells of the Rhodococcus rhodochrous strain grown as described in Example 1 were suspended in solutions of 50 mM pH 7 sodium phosphate buffer at 30° C. containing the concentrations of acrylonitrile shown in the table below. Samples were taken over time to determine the acrylonitrile, acrylamide and ammonium acrylate concentrations in the cell suspensions.
as §1, with “1.2 M ammonium acrylate” for “50 mM pH 7 sodium phosphate buffer”

[2] = molecular target: T1, Rhodococcus rhodochrous K22 nitrilase (Rhodococcus rhodochrous, UniProt Q02068); conditions: read-out: Km (acrylonitrile); reported in J. Bacteriol. 172, 9, 4807-4815; cited from earlier work
T1 sequence (Q02068 1-383): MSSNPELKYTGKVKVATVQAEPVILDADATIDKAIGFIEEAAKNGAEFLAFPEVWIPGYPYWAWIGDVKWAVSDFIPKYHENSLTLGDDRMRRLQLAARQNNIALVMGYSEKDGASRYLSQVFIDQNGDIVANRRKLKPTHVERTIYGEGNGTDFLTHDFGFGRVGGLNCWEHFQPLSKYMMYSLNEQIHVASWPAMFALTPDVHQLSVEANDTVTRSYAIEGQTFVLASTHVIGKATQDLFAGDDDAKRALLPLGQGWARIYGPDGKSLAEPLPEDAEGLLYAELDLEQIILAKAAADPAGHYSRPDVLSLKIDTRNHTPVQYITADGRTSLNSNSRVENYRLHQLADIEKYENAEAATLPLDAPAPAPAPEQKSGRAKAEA

[3] = tested on: Fusarium oxysporum f.sp. melonis nitrilase; conditions: read-out: Km (acrylonitrile), cited from earlier work

Compound	Km ([1]; whole cell form, 50 mM pH 7 sodium phosphate buffer, read-out: Km for acrylonitrile) [µM]	Km ([1]; whole cells in 1.2 M ammonium acrylate, read-out: apparent Km (acrylonitrile) in 1.2 M ammonium acrylate) [µM]	Km [2] [µM]	Km ([3]; Goldlust and Bohak (1989)) [µM]	Km ([3]; reported in Biotech. Appl. Biochem., 1989, 11, 581-601) [µM]	ratio (Ki for ammonium acrylate)/(Km for acrylonitrile) ([1]; initial experiments)
C=CC#N [acrylonitrile]	30.6	145	1140	17000	17000	
C=CC(=O)O [ammonium acrylate]						greater than 10000
